{"source": "paper PMC5590075", "about": "“Synthesis, Antimicrobial, and Antioxidant Activities of Chalcogen-Containing Nitrone Derivatives from (R)-citronellal” (Medicines, 2017)", "key": {"ABTS radical scavenging": {"test": "ABTS radical scavenging", "conditions": "mean ± SD (n = 3)", "protocol": "The antioxidant properties of the synthesized compounds (5a–d and 10) were evaluated by three different methods in vitro: DPPH (1,1-diphenyl-2-picryl-hydrazyl) and ABTS^+ (2,2′-azino-bis(3-ethylbenzthiazoline-6-sulfonic acid) radical scavenging ability and ferric ion reducing antioxidant power (FRAP). All drugs were dissolved in dimethyl sulfoxide (DMSO) at concentrations of 1–500 µM. These assays were performed according to the literature and details of these experiments are described elsewhere (see the ‘Results and Discussion’ section for the references). […]\n2.3. Antioxidant activity assays\nThe antioxidant properties of the synthesized compounds were evaluated by three different methods in vitro: DPPH and ABTS+ radical scavenging activity and ferric ion reducing antioxidant power (FRAP). All drugs were dissolved in dimethyl sulfoxide (DMSO). The experimental results were given as the means ± standard deviation (SD) to show the variations among the groups. The statistical analysis was performed using one‐way analysis of variance (ANOVA) followed by Newman‐Keuls multiple comparison test when appropriate. The differences were considered statistically significant at a probability of less than 5% (p < 0.05). All tests were performed at least three times in duplicate. The IC50 values (the concentration of sample required to scavenge 50% of the free radicals) were calculated from the graph of the scavenging effect percentage versus the […]\n2.4. Radical Scavenging Activity\nTo determine if compounds 5a–d and 10 present in vitro antioxidant activity against free radicals, DPPH and ABTS+ scavenging capability were evaluated at different concentrations. […]\nThe ABTS radical scavenging activity was determined according to the method described by Erel. Different concentrations of compounds 5a–d and 10 (10–500 μ M) were mixed with the ABTS+ solution, and the decrease in the absorbance at 734 nm was recorded. […]\nvalues, as calculated by the following equation:\nI% = [(Ac−As/Ac) × 100] (1)\n3. Ferric ion reducing antioxidant power (FRAP) […]\nreducing capacity of compounds 5a–d and 10.\n[8] with slight modifications.\nThey were homogenized in a 0.1 M\nThe supernatants were used for determination of the δ‐ALAD activity. […]\nand 500 μL of distilled water. […]\nand the absorbance was read at 555 nm."}, "δ-ALA-D": {"biological_target": "T1, δ-ALA-D (Mus musculus, UniProt P10518)", "T1 sequence (P10518 1-330)": "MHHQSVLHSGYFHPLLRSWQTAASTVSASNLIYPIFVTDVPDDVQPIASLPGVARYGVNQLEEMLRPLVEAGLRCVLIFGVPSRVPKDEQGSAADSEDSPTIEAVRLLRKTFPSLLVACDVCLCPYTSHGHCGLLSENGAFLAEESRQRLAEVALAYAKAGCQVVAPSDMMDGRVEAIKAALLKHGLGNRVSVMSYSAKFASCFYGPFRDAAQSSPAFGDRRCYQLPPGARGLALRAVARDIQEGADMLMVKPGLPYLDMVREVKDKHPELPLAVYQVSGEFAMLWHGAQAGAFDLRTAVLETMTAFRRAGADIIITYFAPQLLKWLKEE", "test": "δ-ALA-D activity in tissue supernatants (in vitro toxicity)", "conditions": "mean ± SD (n = 3)"}, "[1]": {"tested_on": "Escherichia coli O157: H7 NCTC 12900", "test": "MIC and MBC, macro dilution tube method", "type": "cell-based", "text": "(§1) To evaluate the antimicrobial potential of the synthesized compounds, the following reference strains of bacteria, that are economically important in foods, were employed: Gram-positive Listeria monocytogenes ATCC 7644, Staphylococcus aureus ATCC 25923, and Bacillus cereus ATCC 11778; Gram-negative Salmonella Typhimurium ATCC 14028, Escherichia coli O157: H7 NCTC 12900 and the clinically important Pseudomonas aeruginosa ATCC 15442.\n(§2) The antimicrobial activity assay using the disk diffusion test was realized using the methodology that is recommended by the Clinical Laboratory Standards Institute (CLSI). The determination of the minimum inhibitory concentration (MIC) and minimum bactericidal concentration (MBC) was performed using the macro dilution tube method, in accordance with Rota et al., with modifications. Details of these assays are provided in the Supplemental Material. […]\n(§3) 2.2. Determination of the minimum inhibitory concentration (MIC) and minimum bactericidal concentration\n(§4) The MIC was determined using the macro dilution tube method, in accordance with Rota et al.\n(§5) [5], with modifications. The tested concentrations were 20, 18, 15, 12, 10, 7 and 5 μL.mL‐1 of each compound. In a tube with 1 mL of MH broth, was inoculated 105 UFC.mL‐1, the compound in a predetermined concentration and, to facilitate the solubility, 2 drops of TWEEN 80. The mixture was incubated at 37 °C for 24 h under stirring (150 rpm). As the positive control, MH broth and inoculum concentration in 105 UFC.mL‐1 and as the negative control MH, the inoculum concentration in 105 UFC∙mL‐1 and streptomycin (10 μg) were used. MIC was defined as the lowest concentration of […]\n(§6) After 24 h, tubes with no visible growth were seeded in a […] TSA‐YE tube and incubated at 37 °C for 24 h. The MBC is the lowest concentration of compound where 99.9% of the initially inoculated cells were killed. […]\n(§7) 2.4. Radical Scavenging Activity […]\n(§8) The ABTS radical scavenging activity was determined according to the method described by Erel. Different concentrations of compounds 5a–d and 10 (10–500 μ M) were mixed with the ABTS+ solution, and the decrease in the absorbance at 734 nm was recorded."}, "[2]": {"tested_on": "Staphylococcus aureus ATCC 25923", "test": "MIC and MBC, macro dilution tube method", "type": "cell-based", "conditions": "S. mureus (so in the source)", "text": "as §1, §2, §3, §4, §5, §6, §7, §8"}, "[3]": {"tested_on": "Bacillus cereus ATCC 11778", "test": "MIC and MBC, macro dilution tube method", "type": "cell-based", "conditions": "B. mereus (so in the source)", "text": "as §1, §2, §3, §4, §5, §6, §7, §8"}, "[4]": {"tested_on": "Listeria monocytogenes ATCC 7644", "test": "MIC and MBC, macro dilution tube method", "type": "cell-based", "conditions": "L. monocytogenes", "text": "as §1, §2, §3, §4, §5, §6, §7, §8"}}, "data": [{"smiles": "CC(C)=CCC[C@@H](C)C(/C=N/O)[Se]c1ccccc1", "note": "(stereo partly drawn) [compound 10, (3R,E)-3,7-dimethyl-2-(phenylselanyl)oct-6-enal oxime]", "values": [{"measurement": "ABTS radical scavenging, percentage of inhibition in relation to control", "setting": "ABTS radical scavenging; 5 μM", "result": "2.39 ± 0.57", "unit": "%"}, {"measurement": "ABTS radical scavenging, percentage of inhibition in relation to control", "setting": "ABTS radical scavenging; 10 μM", "result": "27.81 ± 2.12", "unit": "%"}, {"measurement": "ABTS radical scavenging, percentage of inhibition in relation to control", "setting": "ABTS radical scavenging; 50 μM", "result": "87.59 ± 4.81", "unit": "%"}, {"measurement": "ABTS radical scavenging, percentage of inhibition in relation to control", "setting": "ABTS radical scavenging; 100 μM", "result": "94.03 ± 1.05", "unit": "%"}, {"measurement": "IC50", "setting": "ABTS radical scavenging; read-out: ABTS radical scavenging IC50 (concentration compound required for 50% scavenging)", "result": "25 ± 2", "unit": "µM"}, {"measurement": "δ-ALA-D activity", "setting": "δ-ALA-D; Brain, 10 μM", "result": "0.30 ± 0.10", "unit": "nmol PBG.mg.tn‐1.h‐1"}, {"measurement": "δ-ALA-D activity", "setting": "δ-ALA-D; Brain, 50 μM", "result": "0.28 ± 0.09", "unit": "nmol PBG.mg.tn‐1.h‐1"}, {"measurement": "δ-ALA-D activity", "setting": "δ-ALA-D; Brain, 100 μM", "result": "0.26 ± 0.08", "unit": "nmol PBG.mg.tn‐1.h‐1"}, {"measurement": "δ-ALA-D activity", "setting": "δ-ALA-D; Brain, 500 μM", "result": "0.26 ± 0.07", "unit": "nmol PBG.mg.tn‐1.h‐1"}, {"measurement": "δ-ALA-D activity", "setting": "δ-ALA-D; Kidney, 10 μM", "result": "0.96 ± 0.12", "unit": "nmol PBG.mg.tn‐1.h‐1"}, {"measurement": "δ-ALA-D activity", "setting": "δ-ALA-D; Kidney, 50 μM", "result": "0.95 ± 0.10", "unit": "nmol PBG.mg.tn‐1.h‐1"}, {"measurement": "δ-ALA-D activity", "setting": "δ-ALA-D; Kidney, 100 μM", "result": "0.84 ± 0.10", "unit": "nmol PBG.mg.tn‐1.h‐1"}, {"measurement": "δ-ALA-D activity", "setting": "δ-ALA-D; Kidney, 500 μM", "result": "0.61 ± 0.12", "unit": "nmol PBG.mg.tn‐1.h‐1"}, {"measurement": "δ-ALA-D activity", "setting": "δ-ALA-D; Liver, 10 μM", "result": "4.90 ± 0.58", "unit": "nmol PBG.mg.tn‐1.h‐1"}, {"measurement": "δ-ALA-D activity", "setting": "δ-ALA-D; Liver, 50 μM", "result": "4.71 ± 0.53", "unit": "nmol PBG.mg.tn‐1.h‐1"}, {"measurement": "δ-ALA-D activity", "setting": "δ-ALA-D; Liver, 100 μM", "result": "4.57 ± 0.62", "unit": "nmol PBG.mg.tn‐1.h‐1"}, {"measurement": "δ-ALA-D activity", "setting": "δ-ALA-D; Liver, 500 μM", "result": "3.97 ± 0.82", "unit": "nmol PBG.mg.tn‐1.h‐1"}, {"measurement": "MBC", "setting": "[1]; E. coli O157:H7, 10^5 CFU.mL^−1", "result": ">0.70", "unit": "mM.mL^−1"}, {"measurement": "MIC", "setting": "[1]; E. coli O157:H7, 10^5 CFU.mL^−1, 24 h", "result": ">0.70", "unit": "mM.mL^−1"}, {"measurement": "MBC", "setting": "[2]; 10^5 CFU.mL^−1", "result": ">0.70", "unit": "mM.mL^−1"}, {"measurement": "MIC", "setting": "[2]; 10^5 CFU.mL^−1, 24 h", "result": ">0.70", "unit": "mM.mL^−1"}, {"measurement": "MBC", "setting": "[3]; 10^5 CFU.mL^−1", "result": ">0.70", "unit": "mM.mL^−1"}, {"measurement": "MIC", "setting": "[3]; 10^5 CFU.mL^−1, 24 h", "result": ">0.70", "unit": "mM.mL^−1"}, {"measurement": "MBC", "setting": "[4]; 10^5 CFU.mL^−1", "result": ">0.70", "unit": "mM.mL^−1"}, {"measurement": "MIC", "setting": "[4]; 10^5 CFU.mL^−1, 24 h", "result": ">0.70", "unit": "mM.mL^−1"}]}]}
